Assay [1] addresses T1, Bile acid receptor (Homo sapiens, UniProt Q96RI1).
T1 sequence (Q96RI1 whole entry): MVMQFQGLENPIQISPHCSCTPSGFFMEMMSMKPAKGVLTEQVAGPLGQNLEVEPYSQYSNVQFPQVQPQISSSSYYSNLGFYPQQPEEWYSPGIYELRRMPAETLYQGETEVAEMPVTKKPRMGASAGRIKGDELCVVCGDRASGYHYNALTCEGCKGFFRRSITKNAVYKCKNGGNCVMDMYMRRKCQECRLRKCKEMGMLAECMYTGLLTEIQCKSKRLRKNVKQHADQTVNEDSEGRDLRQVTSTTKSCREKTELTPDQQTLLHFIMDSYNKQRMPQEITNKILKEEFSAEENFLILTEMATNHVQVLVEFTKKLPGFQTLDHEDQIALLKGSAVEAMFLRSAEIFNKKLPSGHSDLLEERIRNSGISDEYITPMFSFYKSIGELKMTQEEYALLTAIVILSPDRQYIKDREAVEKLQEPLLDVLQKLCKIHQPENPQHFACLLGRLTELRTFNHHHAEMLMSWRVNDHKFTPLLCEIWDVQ
Put plainly: Agonist activity at FXR assessed as receptor-SRC-1 peptide interaction by FRET assay. The class given is functional.

Assay [2] addresses T2, Bile acid receptor (Homo sapiens) (UniProt Q96RI1).
T2 sequence (whole entry): T1 sequence (Q96RI1 whole entry)
Put plainly: Agonist activity at FXR assessed as receptor-SRC-1 peptide interaction by FRET assay relative to GW-4064. In kind it is functional.

Assay [3] concerns the target T1, Bile acid receptor. In words: Agonist activity at FXR expressed in african green monkey CV1 cells by luciferase reporter transient transfection assay. The class given is functional, cell-based, CV-1.
In assay [4] the target is T2, Bile acid receptor (Homo sapiens). In words: Agonist activity at FXR expressed in african green monkey CV1 cells by luciferase reporter transient transfection assay relative to GW-4064. The class given is functional, cell-based. Conditions: CV-1.

Take `CC(C)c1onc(-c2c(Cl)cccc2Cl)c1COc1ccc(-c2ccc3ccc(C(=O)O)cc3c2)cc1`: the results for the EC50 in assay [1] and in assay [3] were 420 nM and 500 nM, respectively. In addition, the %max worked out at 69% in assay [2] and 90% in assay [4].
As to `CC(C)c1onc(-c2c(Cl)cccc2Cl)c1COc1ccc(-c2ccc3cccc(C(=O)O)c3c2)cc1`, the EC50 in assay [1] came to 2300 nM; in assay [3], 3300 nM. Further, the %max was 52% in assay [2] and 27% in assay [4].
For `CC(C)c1onc(-c2c(Cl)cccc2Cl)c1COc1ccc(-c2ccc3cc(C(=O)O)ccc3c2)cc1` the same measures were 100 nM, 45 nM, 90% and 87%.

The values above are taken from ChEMBL document CHEMBL1155854, “Conformationally constrained farnesoid X receptor (FXR) agonists: Naphthoic acid-based analogs of GW 4064” (Bioorg Med Chem Lett, 2008).
